Measurements published in BindingDB's records for patent US10556885 (Samumed, 2020).

How the values were obtained:
[1] = biological target: Glycogen synthase kinase-3 beta (Homo sapiens, UniProt P49841); experiment: Z-lyte Assay
[2] = biological target: Dual specificity tyrosine-phosphorylation-regulated kinase 1A (Homo sapiens, UniProt Q13627); experiment: Z-lyte Assay
Experimental: All reactions were performed in duplicate.

Glycogen synthase kinase-3 beta, sequence (P49841 whole entry): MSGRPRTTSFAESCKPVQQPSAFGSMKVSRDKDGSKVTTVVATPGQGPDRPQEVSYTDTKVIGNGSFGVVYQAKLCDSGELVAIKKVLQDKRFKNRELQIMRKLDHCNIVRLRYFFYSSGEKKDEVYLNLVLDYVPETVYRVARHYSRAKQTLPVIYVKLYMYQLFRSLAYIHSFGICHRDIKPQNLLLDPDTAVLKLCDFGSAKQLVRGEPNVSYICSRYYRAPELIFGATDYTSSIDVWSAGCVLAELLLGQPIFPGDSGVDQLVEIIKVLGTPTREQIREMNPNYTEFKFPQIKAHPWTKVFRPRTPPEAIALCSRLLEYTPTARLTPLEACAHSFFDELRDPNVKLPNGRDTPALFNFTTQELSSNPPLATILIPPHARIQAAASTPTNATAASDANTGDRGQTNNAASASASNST

## Cc1ncc(-c2ccc3cnc(NC(=O)C4CCC(F)(F)CC4)cc3c2)[nH]1 [US10556885, Compound 121]
[1]
  EC50: 53 nM
[2]
  EC50: 3.4 nM
